Laboratory results: ChEMBL document CHEMBL1800042, “Generation of 3,8-substituted 1,2,4-triazolopyridines as potent inhibitors of human 11β-hydroxysteroid dehydrogenase type 1 (11β-HSD-1)” (Bioorg Med Chem Lett, 2011)
In brackets after ≈: the same amount, converted by molar mass.

Test: Solubility of the compound at pH 7.4
Format: physicochemical
Settings: buffer

| solubility [µg/mL] | Structure (SMILES) |
| --- | --- |
| 1 (≈ 2.83 µM) | Cc1c(Cl)cccc1Oc1cccn2c(C34CCC(CC3)C4)nnc12 |
| 1 (≈ 2.59 µM) | Cc1c(Cl)cccc1Oc1cccn2c(C34CCC(F)(CC3)CC4)nnc12 |
| 11 (≈ 28.7 µM) | Cc1c(Cl)cccc1Oc1cccn2c(C34CCC(O)(CC3)CC4)nnc12 |
